Test results taken from patent publication US9730914B2, “3,5-diaminopyrazole kinase inhibitors” (Axikin Pharmaceuticals, Inc., priority 2014, dated 2017).

Assays:
JAK3 = biological target: T1, JAK3 (Homo sapiens, UniProt P52333); assay: Kinase competition binding assay (Kd, qPCR readout), JAK3; conditions: for Kd: read-out: JAK3 Activity Level; for RCK:JAK3 selectivity ratio: ratio Kd (JAK3): Kd (RCK)
T1 construct: made in house; host or cells: E. coli BL21-derived host (T7 phage) or HEK-293
In short: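 Kd values were derived from 11-point, 3-fold compound series at 1% DMSO, usually topping at 30,000 nM, with retesting from a lower top when under 0.5 nM. It competed with bead-immobilized ligand for 1 h at room temperature, and the captured kinase was measured by qPCR after elution.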

JAK2 = biological target: T2, JAK2 (Homo sapiens, UniProt O60674); assay: Kinase competition binding assay (Kd, qPCR readout), JAK2; conditions: for Kd: Kd class, JAK2, read-out: JAK2 Activity Level; for RCK:JAK2 selectivity ratio: ratio Kd (JAK2): Kd(RCK)
T2 construct: made in house; host or cells: E. coli BL21-derived host (T7 phage) or HEK-293
T2 sequence (O60674 840-1132 limits assumed): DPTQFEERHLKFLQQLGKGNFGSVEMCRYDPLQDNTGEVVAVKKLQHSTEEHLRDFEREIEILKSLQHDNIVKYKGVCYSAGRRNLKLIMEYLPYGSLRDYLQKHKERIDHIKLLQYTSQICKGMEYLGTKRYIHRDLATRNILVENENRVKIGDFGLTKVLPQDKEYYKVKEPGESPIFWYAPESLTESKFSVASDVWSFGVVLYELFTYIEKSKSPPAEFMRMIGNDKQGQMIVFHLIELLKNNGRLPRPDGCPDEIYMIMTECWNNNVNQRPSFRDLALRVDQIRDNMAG
In short: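 Competition binding: DNA-tagged kinase (T7 phage or HEK-293-expressed), immobilized biotinylated ligand beads and compound in SeaBlock/PBS/Tween/DTT buffer, 1 hour at room temperature; bound kinase eluted and quantified by qPCR. Kd from 11-point 3-fold dilution, top 30,000 nM typically, final DMSO 1%.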

[1] = biological target: T3, kinase domain protein of RC kinase (RCK) (Homo sapiens, UniProt Q56UN5); assay: Kinase competition binding assay (Kd, qPCR readout), RC kinase; conditions: Kd class, read-out: RCK Activity Level
T3 construct: made in house; host or cells: E. coli BL21-derived host (T7 phage) or HEK-293
T3 sequence (Q56UN5 1061-1324 limits assumed): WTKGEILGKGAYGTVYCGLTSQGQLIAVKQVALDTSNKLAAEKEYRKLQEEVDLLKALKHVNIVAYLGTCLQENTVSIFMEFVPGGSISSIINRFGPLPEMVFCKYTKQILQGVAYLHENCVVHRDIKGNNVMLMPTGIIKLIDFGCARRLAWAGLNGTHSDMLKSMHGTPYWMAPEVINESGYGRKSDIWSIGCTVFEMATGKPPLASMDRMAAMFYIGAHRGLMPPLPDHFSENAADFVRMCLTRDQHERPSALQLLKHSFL
In short: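 Competition binding: DNA-tagged kinase (T7 phage or HEK-293-expressed) plus immobilized biotinylated ligand beads and compound, 1 h at room temperature, 1% DMSO. Bead-bound kinase eluted and quantified by qPCR. Kd from 11-point 3-fold dilution, top 30,000 nM, retested lower if below 0.5 nM.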

T1 sequence (P52333 811-1124 limits assumed): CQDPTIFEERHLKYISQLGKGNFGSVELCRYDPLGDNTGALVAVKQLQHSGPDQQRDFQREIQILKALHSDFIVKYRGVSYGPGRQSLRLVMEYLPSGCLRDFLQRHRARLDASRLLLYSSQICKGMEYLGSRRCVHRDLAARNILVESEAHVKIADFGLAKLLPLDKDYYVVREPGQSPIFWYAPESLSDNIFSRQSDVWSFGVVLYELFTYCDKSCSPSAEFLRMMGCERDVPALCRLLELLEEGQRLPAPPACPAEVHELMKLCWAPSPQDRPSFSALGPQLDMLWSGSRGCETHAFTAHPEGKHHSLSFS

Compound	Kd (JAK3; Kd class, JAK3) [µM]	RCK:JAK3 selectivity ratio (JAK3)	Kd (JAK2) [µM]	RCK:JAK2 selectivity ratio (JAK2)	Kd [1] [µM]	JAK3 Activity Level (JAK3; Kd class, JAK3)
C[C@@H]1CN(c2ccc(Nc3n[nH]c(NCc4ccc(O)cc4)c3C(N)=O)cc2)C[C@H](C)O1 [reference compound]	< 0.05	C (C represents 1<Kd (JAK3): Kd (RCK)<10)	< 0.05	D (D represents Kd(JAK2): Kd (RCK)<1)	< 0.05	–
NC(=O)c1c(Nc2cnc(N3CCOCC3)c(Cl)c2)n[nH]c1NCc1ccc(O)cc1 [reference compound]	0.05 to 0.1	C (C represents 1<Kd (JAK3): Kd (RCK)<10)	< 0.05	C (C represents 1<Kd (JAK2): Kd (RCK)<10)	< 0.05	–
NC(=O)c1c(Nc2ccc(-n3cccc3)cc2)n[nH]c1NCc1ccc(O)cc1 [reference compound]	< 0.05	C (C represents 1<Kd (JAK3): Kd (RCK)<10)	< 0.05	D (D represents Kd(JAK2): Kd (RCK)<1)	< 0.05	–
NC(=O)c1c(Nc2ccc(N3CCOCC3)nc2)n[nH]c1NCc1ccc(O)cc1 [reference compound]	< 0.05	C (C represents 1<Kd (JAK3): Kd (RCK)<10)	< 0.05	D (D represents Kd(JAK2): Kd (RCK)<1)	< 0.05	–
NC(=O)c1c(Nc2ccc(-c3ccccn3)cc2)n[nH]c1NCc1ccc(O)cc1 [reference compound]	< 0.05	C (C represents 1<Kd (JAK3): Kd (RCK)<10)	< 0.05	D (D represents Kd(JAK2): Kd (RCK)<1)	< 0.05	–
CN1CCN(c2ccc(Nc3n[nH]c(NCc4ccc(O)cc4)c3C(N)=O)cc2)CC1 [reference compound]	< 0.05	C (C represents 1<Kd (JAK3): Kd (RCK)<10)	< 0.05	C (C represents 1<Kd (JAK2): Kd (RCK)<10)	< 0.05	–
NC(=O)c1c(Nc2ccc(N3CCOCC3)cn2)n[nH]c1NCc1ccc(O)cc1 [reference compound]	–	D (D represents Kd (JAK3): Kd(RCK)<1)	< 0.05	D (D represents Kd(JAK2): Kd (RCK)<1)	< 0.05	.A
Cc1cc(Nc2n[nH]c(NCc3ccc(O)cc3)c2C(N)=O)cnc1N1CCOCC1 [reference compound]	< 0.05	C (C represents 1<Kd (JAK3): Kd (RCK)<10)	< 0.05	D (D represents Kd(JAK2): Kd (RCK)<1)	< 0.05	–
Cc1cc(Nc2n[nH]c(NCc3ccc(O)cc3)c2C(N)=O)cnc1N1CCN(C(C)C)CC1 [reference compound]	< 0.05	C (C represents 1<Kd (JAK3): Kd (RCK)<10)	< 0.05	D (D represents Kd(JAK2): Kd (RCK)<1)	< 0.05	–
Cc1cc(Nc2n[nH]c(NCc3ccc(O)cc3)c2C(N)=O)cnc1N1CCN(C)CC1 [reference compound]	< 0.05	C (C represents 1<Kd (JAK3): Kd (RCK)<10)	< 0.05	D (D represents Kd(JAK2): Kd (RCK)<1)	< 0.05	–
C[C@@H]1CN(c2ccc(Nc3n[nH]c(NCc4ccc(O)cc4)c3C(N)=O)cc2Cl)C[C@H](C)O1 [reference compound]	< 0.05	C (C represents 1<Kd (JAK3): Kd (RCK)<10)	< 0.05	D (D represents Kd(JAK2): Kd (RCK)<1)	< 0.05	–
NC(=O)c1c(Nc2ccc(-c3cccnc3)cc2)n[nH]c1NCc1ccc(O)cc1 [reference compound]	< 0.05	C (C represents 1<Kd (JAK3): Kd (RCK)<10)	< 0.05	C (C represents 1<Kd (JAK2): Kd (RCK)<10)	< 0.05	–
CC(C)N1CCN(c2ccc(Nc3n[nH]c(NCc4ccc(O)cc4)c3C(N)=O)cc2Cl)CC1 [reference compound]	< 0.05	C (C represents 1<Kd (JAK3): Kd (RCK)<10)	< 0.05	C (C represents 1<Kd (JAK2): Kd (RCK)<10)	< 0.05	–
NC(=O)c1c(Nc2ccc(-c3ccccc3)cc2)n[nH]c1NCc1ccc(O)cc1 [reference compound]	0.05 to 0.1	C (C represents 1<Kd (JAK3): Kd (RCK)<10)	< 0.05	D (D represents Kd(JAK2): Kd (RCK)<1)	0.05 to 0.1	–
CC(C)(C)c1ccc(Nc2n[nH]c(NCc3ccc(O)cc3)c2C(N)=O)cc1 [reference compound]	0.05 to 0.1	C (C represents 1<Kd (JAK3): Kd (RCK)<10)	< 0.05	D (D represents Kd(JAK2): Kd (RCK)<1)	< 0.05	–
NC(=O)c1c(Nc2ccc3[nH]ncc3c2)n[nH]c1NCc1ccc(O)cc1 [reference compound]	< 0.05	D (D represents Kd (JAK3): Kd(RCK)<1)	< 0.05	D (D represents Kd(JAK2): Kd (RCK)<1)	0.05 to 0.1	–
CC1CCN(C2CCN(c3ccc(Nc4n[nH]c(NCc5ccc(O)cc5)c4C(N)=O)cc3)CC2)CC1 [reference compound]	< 0.05	D (D represents Kd (JAK3): Kd(RCK)<1)	< 0.05	C (C represents 1<Kd (JAK2): Kd (RCK)<10)	< 0.05	–
NC(=O)c1c(Nc2ccc(N3CCN(C(=O)N4CCCC4)CC3)cc2)n[nH]c1NCc1ccc(O)cc1 [reference compound]	< 0.05	C (C represents 1<Kd (JAK3): Kd (RCK)<10)	< 0.05	D (D represents Kd(JAK2): Kd (RCK)<1)	< 0.05	–
NC(=O)c1c(Nc2ccc(N3CCC(F)CC3)cc2)n[nH]c1NCc1ccc(O)cc1 [reference compound]	< 0.05	D (D represents Kd (JAK3): Kd(RCK)<1)	< 0.05	D (D represents Kd(JAK2): Kd (RCK)<1)	< 0.05	–
N#CCc1ccc(Nc2n[nH]c(NCc3ccc(O)cc3)c2C(N)=O)cc1 [reference compound]	< 0.05	C (C represents 1<Kd (JAK3): Kd (RCK)<10)	< 0.05	D (D represents Kd(JAK2): Kd (RCK)<1)	< 0.05	–
NC(=O)c1c(Nc2ccc(NC(=O)c3ccc(C(F)(F)F)cc3)cc2)n[nH]c1NCc1ccc(O)cc1 [reference compound]	0.1 to 1	C (C represents 1<Kd (JAK3): Kd (RCK)<10)	0.1 to 1	C (C represents 1<Kd (JAK2): Kd (RCK)<10)	0.05 to 0.1	–
CC1CCN(c2ccc(Nc3n[nH]c(NCc4ccc(O)cc4)c3C(N)=O)cc2)CC1 [reference compound]	0.05 to 0.1	C (C represents 1<Kd (JAK3): Kd (RCK)<10)	< 0.05	D (D represents Kd(JAK2): Kd (RCK)<1)	< 0.05	–
